Source: patent EP2818472A1, “Imidazo[4,5-c]pyridine and pyrrolo[3,2-c]pyridine compounds as G-protein-coupled receptor kinase 5 (GRK5) modulators” (Max-Planck-Gesellschaft zur Förderung der Wissenschaften …, priority 2013, dated 2014)

System: beta-TC6 cells
Assay: Insulin HTRF assay (relative activity Ar) in beta-TC6 cells
Assay type: cell-based, mouse
Conditions: Mus musculus, Beta-TC6, 4 h, insulin HTRF, supernatant of beta-TC6 cells, incubation with test compound at 37°C for 2, 3, 4h; read-out: Ar (relative activity)
Summary of the method: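 beta-TC6 cells (15k/well, seeded 24 or 48 h) washed, then exposed to compound in induction buffer (0.5% DMSO final) for 2, 3 or 4 h at 37°C.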

Row | Compound | Emax
1 | CN(C)C(=O)c1ccc(Nc2cc3[nH]c(-c4ccc(C(=O)N(C)C)cc4)cc3cn2)cc1 [Compound 40, 4-[6-[4-(dimethylcarbamoyl)anilino]-1H-pyrrolo[3,2-c]pyridin-2-yl]-N,N-dimethyl-benzamide] | > 100%
2 | COc1cc(Nc2cc3[nH]c(-c4ccccn4)cc3cn2)cc(OC)c1OC [Compound 62, 2-(2-pyridyl)-N-(3,4,5-trimethoxyphenyl)-1H-pyrrolo[3,2-c]pyridin-6-amine] | > 100%
3 | COc1ccc(-c2nc3c(Nc4cccc(S(C)(=O)=O)c4)nccc3[nH]2)cc1OC [Compound 351, 2-(3,4-dimethoxyphenyl)-N-(3-methylsulfonylphenyl)-1H-imidazo[4,5-c]pyridin-4-amine] | 50 to 100%
4 | CS(=O)(=O)c1ccc(Nc2nccc3[nH]c(-c4cccc(C(F)(F)F)c4)cc23)cc1 [Compound 197, N-(4-methylsulfonylphenyl)-2-[3-(trifluoromethyl)phenyl]-1H-pyrrolo[3,2-c]pyridin-4-amine] | 30 to 50%
5 | Cn1cc(-c2cc3cnc(Nc4ccc5c(c4)OCO5)cc3n2C)cn1 [Compound 143, N-(1,3-benzodioxol-5-yl)-1-methyl-2-(1-methylpyrazol-4-yl)pyrrolo[3,2-c]pyridin-6-amine] | > 100%
6 | c1ccc(-c2cc3cnc(Nc4ccc(N5CCOCC5)cc4)cc3[nH]2)cc1 [Compound 176, N-(4-morpholinophenyl)-2-phenyl-1H-pyrrolo[3,2-c]pyridin-6-amine] | 50 to 100%
7 | COc1cc(Nc2cc3[nH]c(-c4ccc(C(=O)N(C)C)cc4)cc3cn2)cc(OC)c1OC [Compound 18, N,N-dimethyl-4-[6-(3,4,5-trimethoxyanilino)-1H-pyrrolo[3,2-c]pyridin-2-yl]benzamide] | 50 to 100%
8 | CC(=O)N(C)c1cccc(-c2cc3cnc(Nc4cccc(N(C)C)c4)cc3n2C)c1 [Compound 165, N-[3-[6-[3-(dimethylamino)anilino]-1-methyl-pyrrolo[3,2-c]pyridin-2-yl]phenyl]-N-methyl-acetamide] | > 100%
9 | CC(C)Oc1ccc(Nc2nccc3[nH]c(-c4ccsc4)cc23)cc1 [Compound 269, N-(4-isopropoxyphenyl)-2-(3-thienyl)-1H-pyrrolo[3,2-c]pyridin-4-amine] | 0 to 30%
10 | CNc1nc2cnc(Nc3cc(OC)c(OC)c(OC)c3)cc2n1-c1cccc(C(F)(F)F)c1 [Compound 539, N2-methyl-1-[3-(trifluoromethyl)phenyl]-N6-(3,4,5-trimethoxyphenyl)imidazo[4,5-c]pyridine-2,6-diamine] | 30 to 50%
11 | COc1ncccc1-c1cc2c(cn1)nc(NCC1CCCO1)n2C (stereo not shown) [Compound 644, 6-(2-methoxy-3-pyridyl)-1-methyl-N-(tetrahydrofuran-2-ylmethyl)imidazo[4,5-c]pyridin-2-amine] | 50 to 100%
12 | Oc1cccc(Nc2nccc3[nH]c(-c4ccc(F)c(F)c4)nc23)c1 [Compound 441, 3-[[2-(3,4-difluorophenyl)-1H-imidazo[4,5-c]pyridin-4-yl]amino]phenol] | 30 to 50%
13 | CN(C)C(=O)c1ccc(Nc2cc3c(cn2)nc(NCc2ccccc2)n3C)cc1 [Compound 626, 4-[[2-(benzylamino)-1-methyl-imidazo[4,5-c]pyridin-6-yl]amino]-N,N-dimethyl-benzamide] | 30 to 50%
14 | CN(C)C(=O)c1ccc(-c2cc3cnc(Nc4cccc(N(C)C)c4)cc3[nH]2)cc1 [Compound 27, 4-[6-[3-(dimethylamino)anilino]-1H-pyrrolo[3,2-c]pyridin-2-yl]-N,N-dimethyl-benzamide] | 50 to 100%
15 | Cc1cccc(Nc2cc3[nH]c(-c4ccccn4)cc3cn2)c1 [Compound 64, N-(m-tolyl)-2-(2-pyridyl)-1H-pyrrolo[3,2-c]pyridin-6-amine] | 50 to 100%
16 | Fc1cccc(-c2cc3c(Nc4ccc5c(c4)OCO5)nccc3[nH]2)c1 [Compound 203, N-(1,3-benzodioxol-5-yl)-2-(3-fluorophenyl)-1H-pyrrolo[3,2-c]pyridin-4-amine] | 30 to 50%
